# Test results as given in the NIST ThermoML archive (doi:10.1016/j.jct.2016.08.001).
# ± gives the expanded uncertainty stated by the source.
# Test: not given
# Details: 323.15 K; 100 kPa; Liquid; Vibrating tube method
row,Structure (SMILES),mass density [kg/m3]
1,O=Cc1ccccc1 [benzaldehyde],1018.4 ± 1
2,N#Cc1ccccc1 [benzonitrile],977.9 ± 1
3,CCOC(=O)OCC [diethyl carbonate],940.7 ± 1

# Test: xn = mol fraction of the nth substance listed
# Details: 298.15 K; 100 kPa; Liquid; Frequency=3 MHz; Sing-around technique in a fixed-path interferometer; x1 = 1
row,Structure (SMILES),speed of sound [m/s]
1,CCOC(=O)OCC [diethyl carbonate] + N#Cc1ccccc1,1177.5 ± 1.6
2,CCOC(=O)OCC [diethyl carbonate] + Nc1ccccc1,1177.5 ± 1.6
3,CCOC(=O)OCC [diethyl carbonate] + O=Cc1ccccc1,1177.5 ± 1.6

# Same assay, conditions: 298.15 K; 100 kPa; Liquid; Vibrating tube method; x1 = 1
row,Structure (SMILES),mass density [kg/m3]
1,CCOC(=O)OCC [diethyl carbonate] + N#Cc1ccccc1,969.1 ± 1
2,CCOC(=O)OCC [diethyl carbonate] + Nc1ccccc1,969.1 ± 1
3,CCOC(=O)OCC [diethyl carbonate] + O=Cc1ccccc1,969.1 ± 1

# Same assay, conditions: 303.15 K; 100 kPa; Liquid; Frequency=3 MHz; Sing-around technique in a fixed-path interferometer; x1 = 1
row,Structure (SMILES),speed of sound [m/s]
1,CCOC(=O)OCC [diethyl carbonate] + N#Cc1ccccc1,1156.9 ± 1.6
2,CCOC(=O)OCC [diethyl carbonate] + Nc1ccccc1,1156.9 ± 1.6
3,CCOC(=O)OCC [diethyl carbonate] + O=Cc1ccccc1,1156.9 ± 1.6

# Same assay, conditions: 303.15 K; 100 kPa; Liquid; Vibrating tube method; x1 = 1
row,Structure (SMILES),mass density [kg/m3]
1,CCOC(=O)OCC [diethyl carbonate] + N#Cc1ccccc1,963.5 ± 1
2,CCOC(=O)OCC [diethyl carbonate] + Nc1ccccc1,963.5 ± 1
3,CCOC(=O)OCC [diethyl carbonate] + O=Cc1ccccc1,963.5 ± 1

# Same assay, conditions: 308.15 K; 100 kPa; Liquid; Frequency=3 MHz; Sing-around technique in a fixed-path interferometer; x1 = 1
row,Structure (SMILES),speed of sound [m/s]
1,CCOC(=O)OCC [diethyl carbonate] + N#Cc1ccccc1,1136.6 ± 1.5
2,CCOC(=O)OCC [diethyl carbonate] + Nc1ccccc1,1136.6 ± 1.5
3,CCOC(=O)OCC [diethyl carbonate] + O=Cc1ccccc1,1136.6 ± 1.5

# Same assay, conditions: 308.15 K; 100 kPa; Liquid; Vibrating tube method; x1 = 1
row,Structure (SMILES),mass density [kg/m3]
1,CCOC(=O)OCC [diethyl carbonate] + N#Cc1ccccc1,957.8 ± 1
2,CCOC(=O)OCC [diethyl carbonate] + Nc1ccccc1,957.8 ± 1
3,CCOC(=O)OCC [diethyl carbonate] + O=Cc1ccccc1,957.8 ± 1

# Same assay, conditions: 313.15 K; 100 kPa; Liquid; Frequency=3 MHz; Sing-around technique in a fixed-path interferometer; x1 = 1
row,Structure (SMILES),speed of sound [m/s]
1,CCOC(=O)OCC [diethyl carbonate] + N#Cc1ccccc1,1116.5 ± 1.5
2,CCOC(=O)OCC [diethyl carbonate] + Nc1ccccc1,1116.5 ± 1.5
3,CCOC(=O)OCC [diethyl carbonate] + O=Cc1ccccc1,1116.5 ± 1.5

# Same assay, conditions: 313.15 K; 100 kPa; Liquid; Vibrating tube method; x1 = 1
row,Structure (SMILES),mass density [kg/m3]
1,CCOC(=O)OCC [diethyl carbonate] + N#Cc1ccccc1,952.1 ± 1
2,CCOC(=O)OCC [diethyl carbonate] + Nc1ccccc1,952.1 ± 1
3,CCOC(=O)OCC [diethyl carbonate] + O=Cc1ccccc1,952.1 ± 1

# Same assay, conditions: 318.15 K; 100 kPa; Liquid; Frequency=3 MHz; Sing-around technique in a fixed-path interferometer; x1 = 1
row,Structure (SMILES),speed of sound [m/s]
1,CCOC(=O)OCC [diethyl carbonate] + N#Cc1ccccc1,1096.5 ± 1.5
2,CCOC(=O)OCC [diethyl carbonate] + Nc1ccccc1,1096.5 ± 1.5
3,CCOC(=O)OCC [diethyl carbonate] + O=Cc1ccccc1,1096.5 ± 1.5

# Same assay, conditions: 318.15 K; 100 kPa; Liquid; Vibrating tube method; x1 = 1
row,Structure (SMILES),mass density [kg/m3]
1,CCOC(=O)OCC [diethyl carbonate] + N#Cc1ccccc1,946.4 ± 1
2,CCOC(=O)OCC [diethyl carbonate] + Nc1ccccc1,946.4 ± 1
3,CCOC(=O)OCC [diethyl carbonate] + O=Cc1ccccc1,946.4 ± 1

# Same assay, conditions: 323.15 K; 100 kPa; Liquid; Frequency=3 MHz; Sing-around technique in a fixed-path interferometer; x1 = 1
row,Structure (SMILES),speed of sound [m/s]
1,CCOC(=O)OCC [diethyl carbonate] + N#Cc1ccccc1,1076.7 ± 1.5
2,CCOC(=O)OCC [diethyl carbonate] + Nc1ccccc1,1076.7 ± 1.5
3,CCOC(=O)OCC [diethyl carbonate] + O=Cc1ccccc1,1076.7 ± 1.5

# Same assay, conditions: 323.15 K; 100 kPa; Liquid; Vibrating tube method; x1 = 1
row,Structure (SMILES),mass density [kg/m3]
1,CCOC(=O)OCC [diethyl carbonate] + N#Cc1ccccc1,940.7 ± 1
2,CCOC(=O)OCC [diethyl carbonate] + Nc1ccccc1,940.7 ± 1
3,CCOC(=O)OCC [diethyl carbonate] + O=Cc1ccccc1,940.7 ± 1

# Test: refractive index (Na D-line) (dimensionless)
# Details: 298.15 K; 100 kPa; Liquid; Standard Abbe refractometry
row,Structure (SMILES),refractive index
1,Nc1ccccc1 [aniline],1.5826 ± 0.0016
2,O=Cc1ccccc1 [benzaldehyde],1.541 ± 0.0016
3,N#Cc1ccccc1 [benzonitrile],1.526 ± 0.0016
4,CCOC(=O)OCC [diethyl carbonate],1.3825 ± 0.0016

# Same assay, conditions: 303.15 K; 100 kPa; Liquid; Standard Abbe refractometry
row,Structure (SMILES),refractive index
1,Nc1ccccc1 [aniline],1.5793 ± 0.0016
2,O=Cc1ccccc1 [benzaldehyde],1.5383 ± 0.0016
3,N#Cc1ccccc1 [benzonitrile],1.5235 ± 0.0016
4,CCOC(=O)OCC [diethyl carbonate],1.3802 ± 0.0016

# Same assay, conditions: 308.15 K; 100 kPa; Liquid; Standard Abbe refractometry
row,Structure (SMILES),refractive index
1,Nc1ccccc1 [aniline],1.576 ± 0.0016
2,O=Cc1ccccc1 [benzaldehyde],1.5357 ± 0.0016
3,N#Cc1ccccc1 [benzonitrile],1.5209 ± 0.0016
4,CCOC(=O)OCC [diethyl carbonate],1.3779 ± 0.0016

# Same assay, conditions: 313.15 K; 100 kPa; Liquid; Standard Abbe refractometry
row,Structure (SMILES),refractive index
1,Nc1ccccc1 [aniline],1.5727 ± 0.0016
2,O=Cc1ccccc1 [benzaldehyde],1.5332 ± 0.0016
3,N#Cc1ccccc1 [benzonitrile],1.5184 ± 0.0016
4,CCOC(=O)OCC [diethyl carbonate],1.3756 ± 0.0016

# Same assay, conditions: 318.15 K; 100 kPa; Liquid; Standard Abbe refractometry
row,Structure (SMILES),refractive index
1,Nc1ccccc1 [aniline],1.5694 ± 0.0016
2,O=Cc1ccccc1 [benzaldehyde],1.5307 ± 0.0016
3,N#Cc1ccccc1 [benzonitrile],1.5158 ± 0.0016
4,CCOC(=O)OCC [diethyl carbonate],1.3733 ± 0.0016

# Same assay, conditions: 323.15 K; 100 kPa; Liquid; Standard Abbe refractometry
row,Structure (SMILES),refractive index
1,Nc1ccccc1 [aniline],1.5661 ± 0.0016
2,O=Cc1ccccc1 [benzaldehyde],1.5282 ± 0.0016
3,N#Cc1ccccc1 [benzonitrile],1.5133 ± 0.0016
4,CCOC(=O)OCC [diethyl carbonate],1.371 ± 0.0016
